Test results reported in patent publication US6573218B1, “Fused-benzene derivatives useful as herbicides” (Ishihara Sangyo Kaisha, Ltd., priority 1998, dated 2003).

Key:
Type in all cases: in vivo
[1] = system: barnyardgrass (Echinochloa crus-galli, ECHCG); assay: Pre-emerge greenhouse herbicide test; conditions: 250 g ai/ha, 14 days after application, scale 0-100 (0 no damage, 100 complete death)
Description: (§1) A standard greenhouse herbicide activity screening system was used to evaluate the herbicidal efficacy and crop safety of these test compounds. Seven broadleaf weed species including redroot pigweed (Amaranthus retroflexus, AMARE), velvetleaf (Abutilon theophrasti, ABUTH), sicklepod (Cassia obtusifolia, CASOB), ivyleaf morningglory (Ipomoea hederacea, IPOHE), lambsquarters (Chenopodium album, CHEAL), common ragweed (Ambrosia artemisiifolia L., AMBEL), and cocklebur (Xanthium strumarium, XANST) were used as test species. Four grass weed species including green foxtail (Setaria viridis, SETVI), barnyardgrass (Echinochloa crus-galli, ECHCG), johnsongrass (Sorghum halepense, SORHA), and large crabgrass (Digitaria sanguinalis, DIGSA) were also used. In addition, three crop species, field corn (Zea mays L., var. Dekalb 527, CORN), soybean (Glycine max L., var. Pella 86, SOY), and upland rice (Ory0a sp., var.Tebonnet, RICE) were included.
(§2) All plants were grown in 10 cm square plastic pots which were filled with a sandy loam soil mix. For pre-emerge tests, seeds were planted one day prior to application of the test compounds. For post-emerge tests, seeds were planted 8-21 days prior to the test to allow emergence and good foliage development prior to application of the test substances. At the time of the post-emerge application, plants of all species were usually at the 2-3 leaf stage of development.
(§3) All test compounds were dissolved in acetone and applied to the test units in a volume of 187 l/ha. Test materials were applied at rates ranging from 15 g ai/ha to 1000 g ai/ha using a track sprayer equipped with a TJ8001E even flow flat fan spray nozzle. Plants were arranged on a shelf so that the top of the canopy (post-emerge) or top of the soil surface (pre-emerge) was 40-45 cm below the nozzle. Pressurized air was used to force the test solution through the nozzle as it was mechanically advanced over the top of all test plants/pots. This application simulates a typical commercial field herbicide application.
(§4) In the post-emerge test, a commercial non-ionic surfactant was also included (0.25% v/v) to enhance wetting of the leaf surfaces of target plants. Immediately after application, test units of the pre-emerge applications were watered at the soil surface to incorporate the test materials.
(§5) At 14 days after application of the test materials, phytotoxicity ratings were recorded. A rating scale of 0-100 was used as previously described in Research Methods in Weed Science, 2nd edition, B. Truelove, Ed., Southern Weed Science Society, Auburn University, Auburn, Ala., 1977. Briefly, “0” corresponds to no damage and “100” corresponds to complete death of all plants in the test unit. This scale was used both to determine efficacy against weed species and damage to crop species. Herbicide activity data for various compounds of this invention, which are shown by compound No. in Tables 1-14, are shown in Tables 16 and 17.

[2] = system: green foxtail (Setaria viridis, SETVI); assay: Pre-emerge greenhouse herbicide test; conditions: 250 g ai/ha, 14 days after application, scale 0-100 (0 no damage, 100 complete death)
Description: as §1, §2, §3, §4, §5

[3] = system: ivyleaf morningglory (Ipomoea hederacea, IPOHE); assay: Pre-emerge greenhouse herbicide test; conditions: 250 g ai/ha, 14 days after application, scale 0-100 (0 no damage, 100 complete death)
Description: as §1, §2, §3, §4, §5

[4] = system: lambsquarters (Chenopodium album, CHEAL); assay: Pre-emerge greenhouse herbicide test; conditions: 250 g ai/ha, 14 days after application, scale 0-100 (0 no damage, 100 complete death)
Description: as §1, §2, §3, §4, §5

[5] = system: large crabgrass (Digitaria sanguinalis, DIGSA); assay: Pre-emerge greenhouse herbicide test; conditions: 250 g ai/ha, 14 days after application, scale 0-100 (0 no damage, 100 complete death)
Description: as §1, §2, §3, §4, §5

[6] = system: redroot pigweed (Amaranthus retroflexus, AMARE); assay: Pre-emerge greenhouse herbicide test; conditions: 250 g ai/ha, 14 days after application, scale 0-100 (0 no damage, 100 complete death)
Description: as §1, §2, §3, §4, §5

[7] = system: sicklepod (Cassia obtusifolia, CASOB); assay: Pre-emerge greenhouse herbicide test; conditions: 250 g ai/ha, 14 days after application, scale 0-100 (0 no damage, 100 complete death)
Description: as §1, §2, §3, §4, §5

[8] = system: velvetleaf (Abutilon theophrasti, ABUTH); assay: Pre-emerge greenhouse herbicide test; conditions: 250 g ai/ha, 14 days after application, scale 0-100 (0 no damage, 100 complete death)
Description: as §1, §2, §3, §4, §5

[9] = system: field corn (Zea mays L., var. Dekalb 527, CORN); assay: Pre-emerge greenhouse crop damage test; conditions: pre-emerge, 250 g ai/ha, 14 days after application, scale 0-100 (0 no damage, 100 complete death)
Description: as §1, §2, §3, §4, §5

[10] = system: soybean (Glycine max L., var. Pella 86, SOY); assay: Pre-emerge greenhouse crop damage test; conditions: pre-emerge, 250 g ai/ha, 14 days after application, scale 0-100 (0 no damage, 100 complete death)
Description: as §1, §2, §3, §4, §5

[11] = system: upland rice (Ory0a sp., var.Tebonnet, RICE); assay: Pre-emerge greenhouse crop damage test; conditions: pre-emerge, 250 g ai/ha, 14 days after application, scale 0-100 (0 no damage, 100 complete death)
Description: as §1, §2, §3, §4, §5

[12] = system: barnyardgrass (Echinochloa crus-galli, ECHCG); assay: Post-emerge greenhouse herbicide test; conditions: 250 g ai/ha, 14 days after application
Description: as §1, §2, §3, §4, §5

[13] = system: green foxtail (Setaria viridis, SETVI); assay: Post-emerge greenhouse herbicide test; conditions: 250 g ai/ha, 14 days after application
Description: as §1, §2, §3, §4, §5

[14] = system: ivyleaf morningglory (Ipomoea hederacea, IPOHE); assay: Post-emerge greenhouse herbicide test; conditions: 250 g ai/ha, 14 days after application
Description: as §1, §2, §3, §4, §5

[15] = system: johnsongrass (Sorghum halepense, SORHA); assay: Post-emerge greenhouse herbicide test; conditions: 250 g ai/ha, 14 days after application
Description: as §1, §2, §3, §4, §5

[16] = system: lambsquarters (Chenopodium album, CHEAL); assay: Post-emerge greenhouse herbicide test; conditions: 250 g ai/ha, 14 days after application
Description: as §1, §2, §3, §4, §5

[17] = system: large crabgrass (Digitaria sanguinalis, DIGSA); assay: Post-emerge greenhouse herbicide test; conditions: 250 g ai/ha, 14 days after application
Description: as §1, §2, §3, §4, §5

[18] = system: redroot pigweed (Amaranthus retroflexus, AMARE); assay: Post-emerge greenhouse herbicide test; conditions: 250 g ai/ha, 14 days after application
Description: as §1, §2, §3, §4, §5

[19] = system: sicklepod (Cassia obtusifolia, CASOB); assay: Post-emerge greenhouse herbicide test; conditions: 250 g ai/ha, 14 days after application
Description: as §1, §2, §3, §4, §5

[20] = system: velvetleaf (Abutilon theophrasti, ABUTH); assay: Post-emerge greenhouse herbicide test; conditions: 250 g ai/ha, 14 days after application
Description: as §1, §2, §3, §4, §5

[21] = system: field corn (Zea mays L., var. Dekalb 527, CORN); assay: Post-emerge greenhouse crop damage test; conditions: 250 g ai/ha, post-emerge, 14 days after application
Description: as §1, §2, §3, §4, §5

[22] = system: soybean (Glycine max L., var. Pella 86, SOY); assay: Post-emerge greenhouse crop damage test; conditions: in vivo
Description: as §1, §2, §3, §4, §5

[23] = system: upland rice (Ory0a sp., var.Tebonnet, RICE); assay: Post-emerge greenhouse crop damage test; conditions: 250 g ai/ha, post-emerge, 14 days after application
Description: as §1, §2, §3, §4, §5

| SMILES | Pre-emerge Herbicidal Activity ECHCG (phytotoxicity rating) [1] | Pre-emerge Herbicidal Activity SETVI (phytotoxicity rating) [2] | Pre-emerge Herbicidal Activity IPOHE (phytotoxicity rating) [3] | Pre-emerge Herbicidal Activity CHEAL (phytotoxicity rating) [4] | Pre-emerge Herbicidal Activity DIGSA (phytotoxicity rating) [5] | Pre-emerge Herbicidal Activity AMARE (phytotoxicity rating) [6] | Pre-emerge Herbicidal Activity CASOB (phytotoxicity rating) [7] | Pre-emerge Herbicidal Activity ABUTH (phytotoxicity rating) [8] | Pre-emerge Herbicidal Activity CORN (crop damage rating) [9] | Pre-emerge Herbicidal Activity SOY (crop damage rating) [10] | Pre-emerge Herbicidal Activity RICE (crop damage rating) [11] | other results |
| --- | --- | --- | --- | --- | --- | --- | --- | --- | --- | --- | --- | --- |
| CCc1nc2c(N3C(=O)C4CCCCN4C3=S)c(F)cc(Cl)c2o1 (single isomer, unassigned) [Compound 7-5, 8-(7-Chloro-2-ethyl-5-fluorobenzoxazol-4-yl)-1,8-diazobicyclo[4,3,0]nonane-7-one-9-thione] | 0 | 0 | 0 | 60 | 0 | 50 | 0 | 30 | 0 | 0 | 0 | Post-emerge Herbicidal Activity ECHCG (phytotoxicity rating 0-100) [12]: 0; Post-emerge Herbicidal Activity SETVI (phytotoxicity rating 0-100) [13]: 60; Post-emerge Herbicidal Activity IPOHE (phytotoxicity rating 0-100) [14]: 100; Post-emerge Herbicidal Activity SORHA (phytotoxicity rating 0-100) [15]: 0; Post-emerge Herbicidal Activity CHEAL (phytotoxicity rating 0-100) [16]: 100; Post-emerge Herbicidal Activity DIGSA (phytotoxicity rating 0-100) [17]: 10; Post-emerge Herbicidal Activity AMARE (phytotoxicity rating 0-100) [18]: 100; Post-emerge Herbicidal Activity CASOB (phytotoxicity rating 0-100) [19]: 100; Post-emerge Herbicidal Activity ABUTH (phytotoxicity rating 0-100) [20]: 100; Post-emerge crop damage CORN (phytotoxicity rating 0-100) [21]: 20; Post-emerge crop damage SOY (phytotoxicity rating 0-100) [22]: 80; Post-emerge crop damage RICE (phytotoxicity rating 0-100) [23]: 10 |
| CCc1nc2c(N3C(=O)C4CCCCN4C3=O)c(F)cc(Cl)c2o1 (stereo not shown) [Compound 7-9] | 10 | 40 | 20 | 100 | 30 | 100 | 10 | 50 | 0 | 15 | 10 | – |
